Broadly, the EC50 is the concentration needed to bring the measured effect to its halfway point.

The target in assay [1] is T1, GPR81 (Rattus norvegicus, UniProt B9UM24).
T1 construct: endogenous in cells; host or cells: cultured primary rat astrocytes transfected only with the cAMP sensors Epac1-camps or AKAR2
T1 sequence (B9UM24 1-351): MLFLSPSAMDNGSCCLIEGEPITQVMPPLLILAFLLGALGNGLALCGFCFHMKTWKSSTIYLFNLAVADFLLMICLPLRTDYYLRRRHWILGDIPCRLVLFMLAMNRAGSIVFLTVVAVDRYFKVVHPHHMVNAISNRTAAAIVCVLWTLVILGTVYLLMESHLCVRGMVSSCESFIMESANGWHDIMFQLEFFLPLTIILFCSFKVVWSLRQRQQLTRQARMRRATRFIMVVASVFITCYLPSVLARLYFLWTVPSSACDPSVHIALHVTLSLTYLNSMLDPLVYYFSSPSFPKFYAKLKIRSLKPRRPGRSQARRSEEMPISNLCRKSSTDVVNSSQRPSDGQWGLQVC
Description: FRET nano-sensor (Epac1-camps / AKAR2) measurement of cytosolic cAMP in single cultured astrocytes, GPR81 ligands. The assay is classed as cell-based. The conditions noted are these: for n decrease (cells with cAMP decrease): number of astrocytes responding with cAMP decrease; for n increase (cells with cAMP increase): number of astrocytes responding with cAMP increase; for n unresponsive (cells): number of unresponsive astrocytes; for % decrease (cells with cAMP decrease) / % increase (cells with cAMP increase) / % unresponsive (cells): share of all astrocytes tested; for responsiveness of cells (cAMP): compared with the high affinity molecule 3cl5hi. From the text:
(§1) As described in the previous European Patent Application No. 13 173 446, the cAMP level may, be determined by fluorescence nano-sensors in the astrocyte. In particular, the cAMP level may be determined by expressing the plasmid for FRET construct Epac1-camps or AKAR2. FRET signal is reported as the ratio of YFP to CFP fluorescence signal. The change in FRET signals reflects change in [cAMP]i. The inventions comprises of using MD and cAMP measurements.
(§2) As described in the previous European Patent Application No. 13 173 446, the cAMP level may, for instance, be determined by fluorescence nano-sensors in the astrocyte. In particular, the cAMP level may be determined by expressing the plasmid for FRET construct Epac1-camps or AKAR2. FRET construct are examined with immersion objective for fluorescent light and confocal microscope or other fluorescent microscope. Cells were excited at 458 nm or other suitable excitation wavelength of light and images are acquired every time interval. Emission spectra are collected from spectral detector or other suitable wavelength of light. Two-channel (CFP and YFP) images are generated from light detector. YFP and CFP fluorescence intensities are quantified within a region of interest selected for individual cell expressing Epac1-camps or AKAR2 using software. FRET signal is reported as the ratio of YFP to CFP fluorescence signal after subtracting the background fluorescence from both YFP and CFP signals. The change in FRET signals reflects change in [cAMP]i.
(§3) Cultured astrocytes, e.g. isolated as previously described by Schwartz & Wilson (Glia. 1992; 5(1):75-80) or any other cell type isolated from animal tissues or clonal cell lines derived from human or animal sources are seeded onto coverslips and maintained in an adequate cell cultured medium. All chemicals were from Sigma Aldrich (St. Louis, Mo., USA) unless otherwise noted.
(§4) Astrocytes expressing Epac1-camps or AKAR2 FRET construct were examined with a Plan NeoFluoar 40×/1.3 Oil DIC immersion objective (Carl Zeiss, Jena, Germany) and 2-fold zoom factor using Zeiss LSM510 META confocal microscope (Carl Zeiss, Jena, Germany). Cells were excited at 458 nm and images (512×512) were acquired every 3.5 s or 7 s using Lambda stack acquisition. Emission spectra were collected from META detector in eight channels (lambda stack) ranging from 470 nm to 545 nm, each with a 10.7-nm width. Two-channel (CFP and YFP) images were generated from lambda stacks by analytical software “Extract channels”. Channels with emission spectra 470- and 481-nm and emission spectra 513-, 524-, and 534-nm were extracted to CFP channel and YFP channel, respectively. YFP and CFP fluorescence intensities were quantified within a region of interest selected for individual cell expressing Epac1-camps or AKAR2 using LSM 510 META software. In the graphs, FRET signal is reported as the ratio of YFP to CFP fluorescence signal after subtracting the background fluorescence from both YFP and CFP signals using Sigma Plot.
(§5) The values of FRET signals were normalized (set to 1.0) at the onset of the experiments and averaged. The decrease in FRET signals in Epac1-camps experiments reflects an increase in [cAMP]i and the increase in FRET signals in AKAR2 experiments reflects increase in [cAMP]i.
(§6) Initially, astrocytes were kept in standard extracellular solution (10 mM Hepes/NaOH, pH 7.2, 10 mM D-glucose, 131.8 mM NaCl, 1.8 mM CaCl2, 2 mM MgCl2, and 5 mM KCl) and then treated with various reagents following a 100 s baseline.

A further assay has as its target human HCAR1 (GPR81) (Homo sapiens, UniProt Q9BXC0). The conditions noted are these: cited from earlier work; for EC50 (in words): Dvorak et al. 2012, qualitative statement; for agonist activity at GPR81: Dvorak et al. 2012; for EC50: receptor activation, value from Dvorak et al. 2012.
The target of assay [2] is T1, GPR81. To be noted: from European Patent Application No. 13 173 446, cited from earlier work.
The target of another assay is human HCA1 (Homo sapiens, UniProt Q9BXC0). To be noted: compared versus HCA2, Liu et al. 2012; cited from earlier work.
For the next assay, the system named is Adrener. Description: FRET nano-sensor measurement of cytosolic cAMP in single cultured astrocytes, adrenergic stimulus. Format: cell-based, rat.
From the text: as §1, §2, §3, §4, §5, §6

Where two headings read alike, the source gives them in different places.

Sequence of human HCAR1 (GPR81) (Q9BXC0 whole entry): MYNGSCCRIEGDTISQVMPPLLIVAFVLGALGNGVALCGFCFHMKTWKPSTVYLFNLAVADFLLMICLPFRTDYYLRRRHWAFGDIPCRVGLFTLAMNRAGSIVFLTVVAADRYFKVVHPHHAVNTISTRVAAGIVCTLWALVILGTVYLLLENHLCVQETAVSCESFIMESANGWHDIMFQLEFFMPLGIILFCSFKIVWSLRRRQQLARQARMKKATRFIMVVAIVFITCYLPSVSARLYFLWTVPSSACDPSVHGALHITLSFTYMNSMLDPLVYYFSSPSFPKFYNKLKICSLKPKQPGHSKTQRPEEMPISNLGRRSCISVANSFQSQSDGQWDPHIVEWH
Sequence of human HCA1 (Q9BXC0 whole entry): as above

Turning to `O=C(O)c1cc(O)cc(Cl)c1` [Ligand 3cl5hi, 3-chloro-5-hydroxybenzoic acid, reference compound], on GPR81 [1], the “n decrease (cells with cAMP decrease)” value is 0 (0%), the “n increase (cells with cAMP increase)” value is 21, the “n unresponsive (cells)” value was found to be 14 and the “% decrease (cells with cAMP decrease)” value is given as 0 (0%). At GPR81 [1], the “% increase (cells with cAMP increase)” value is on record as “(60%)” and the “% unresponsive (cells)” value turned out to be 40%. At human HCAR1 (GPR81), the “EC50 (in words)” value is “relatively low EC50” and the “agonist activity at GPR81” value was “agonists”. Further, at GPR81 [2] (500 μM 3-Cl-5-HBA, AKAR2 sensor, FIG. 9d), the “intracellular cAMP levels in astrocytes (FRET ratio YFP/CFP)” value is “increases intracellular cAMP levels”.
As to `COc1cc(O)cc(C(=O)O)c1` [metoxi, 3-methoxy-5-hydroxybenzoic acid], on GPR81 [1], the “responsiveness of cells (cAMP)” value is “responded much better”, the “n decrease (cells with cAMP decrease)” value is 3, the “n increase (cells with cAMP increase)” value came to 34 and the “n unresponsive (cells)” value is reported as 15. In addition, at GPR81 [1], the “% decrease (cells with cAMP decrease)” value was found to be 6%, the “% increase (cells with cAMP increase)” value was “(65%)” and the “% unresponsive (cells)” value is 29%. Also, at human HCAR1 (GPR81), the “EC50 (in words)” value was “relatively high EC50” and the concentration giving a half-maximal response (EC50) was above 1000 µM.
With `O=C(O)c1cc(O)cc(-c2ccccc2)c1` [ph, 3-phenyl-5-hydroxybenzoic acid], the “EC50 (in words)” value at human HCAR1 (GPR81) is “relatively high EC50”.
For the compound `CC(C)(C)c1cc(O)cc(C(=O)O)c1` [but, 3-tertbutyl-5-hydroxybenzoic acid], at GPR81 [1], the “responsiveness of cells (cAMP)” value is reported as “responded much better”, the “n decrease (cells with cAMP decrease)” value turned out to be 4, the “n increase (cells with cAMP increase)” value amounted to 29 and the “n unresponsive (cells)” value was 6. Besides, at GPR81 [1], the “% decrease (cells with cAMP decrease)” value was 10%, the “% increase (cells with cAMP increase)” value is “(75%)” and the “% unresponsive (cells)” value amounted to 15%. At human HCAR1 (GPR81), the “EC50 (in words)” value is “relatively high EC50” and the EC50 was above 1000 µM.
In the case of Lactic acid/lactate [lakta], the “intracellular cAMP levels in astrocytes (FRET ratio YFP/CFP)” value on GPR81 [2] (20 mM lactate, Epac1-camps and AKAR2 sensors, FIG. 9b-c) is recorded as “increases intracellular cAMP levels”.
For the compound `O=C(O)c1cc(O)cc(O)c1` [oh, 3,5-dihydroxybenzoic acid], the “selectivity for human HCA1” value on human HCA1 was “selective agonist”.
As for `O=C(O)c1cc(O)cc(F)c1` [Ligand 3f5hi, 3-fluoro-5-hydroxybenzoic acid, reference compound], on human HCAR1 (GPR81), the “EC50 (in words)” value is on record as “relatively low EC50” and the “agonist activity at GPR81” value is listed as “agonists”.
`NC[C@H](O)c1ccc(O)c(O)c1` [Norepinephrine]: in the assay on Adrener. (number of astrocytes responding with cAMP decrease), the “n decrease (cells with cAMP decrease)” value is 0 (0%). Besides, the “n increase (cells with cAMP increase)” value in the assay on Adrener. (number of astrocytes responding with cAMP increase) stood at 11. For the same compound, the “n unresponsive (cells)” value in the assay with Adrener. (number of unresponsive astrocytes) was 3. Besides, in the assay with Adrener. (share of all astrocytes tested), the “% decrease (cells with cAMP decrease)” value is 0 (0%), the “% increase (cells with cAMP increase)” value is recorded as “(79%)” and the “% unresponsive (cells)” value turned out to be 21%.

These data come from patent US11231410B2, “Method for identifying a compound useful in mitigating and/or the treatment of a disease associated with abnormal astrocytic function” (Celica BIOMEDICAL, priority 2015, dated 2022).
